Results: publication PMC2631127 (Acta Crystallographica Section D: Biological Crystallography, 2008)

Columns and labels:
[1] = target: human homolog of mouse Rieske-type ferredoxin (HRF) (Homo sapiens, UniProt Q8TAC1); assay: optical absorption spectrum of purified protein; format: binding; conditions: bound as purified
[2] = target: T4moF, bacterial oxidoreductase (Ectopseudomonas mendocina, UniProt Q03304); assay: reduction of MRF followed at […] nm, anaerobic; format: biochemical; conditions: electron acceptor MRF; 4 nM T4moF; 1 mM NADH
Sequence of T4moF, bacterial oxidoreductase (Q03304 whole entry): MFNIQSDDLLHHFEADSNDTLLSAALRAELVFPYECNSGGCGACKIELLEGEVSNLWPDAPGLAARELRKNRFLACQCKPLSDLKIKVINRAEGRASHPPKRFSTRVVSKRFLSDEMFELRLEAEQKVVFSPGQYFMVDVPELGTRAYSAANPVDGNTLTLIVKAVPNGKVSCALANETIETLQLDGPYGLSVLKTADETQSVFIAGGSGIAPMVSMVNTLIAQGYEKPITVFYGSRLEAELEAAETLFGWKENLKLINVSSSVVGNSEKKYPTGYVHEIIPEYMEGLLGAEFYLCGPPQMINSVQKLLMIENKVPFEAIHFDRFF

Sequence of human homolog of mouse Rieske-type ferredoxin (HRF) (Q8TAC1 2-157 limits assumed): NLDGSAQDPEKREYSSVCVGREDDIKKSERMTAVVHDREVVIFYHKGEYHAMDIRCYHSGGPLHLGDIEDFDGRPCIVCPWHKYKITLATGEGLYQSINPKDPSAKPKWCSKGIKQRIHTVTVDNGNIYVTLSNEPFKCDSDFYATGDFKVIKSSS

| Structure (SMILES) | optical absorption spectrum of purified protein [1] | reduction of MRF followed at 460 nm, anaerobic [2] |
| --- | --- | --- |
| [S]1[Fe][S][Fe]1 [[2Fe–2S] cluster] | Expression and purification of HRF following the same protocol resulted in similar purity and [2Fe–2S] |  |
| NC(=O)C1=CN([C@@H]2O[C@H](COP(=O)(O)OP(=O)(O)OC[C@H]3O[C@@H](n4cnc5c(N)ncnc54)[C@H](O)[C@@H]3O)[C@@H](O)[C@H]2O)C=CC1 [NADH] |  | measured at multiple MRF concentrations in the presence of saturating NADH |
